Experiments:
[1] = Single ascending dose (SAD) pharmacokinetics, Compound I in plasma; type: in vivo, human
Excerpt: The SAD part consists of 5 groups of 8 healthy young male and female participants, gender balanced to the extent possible, receiving a single oral dose in Groups 1 to 4 or 2 doses in Group 5 of Compound I or placebo (randomized 3:1, active vs placebo, respectively). All participants in the SAD portion of the study must be fasting prior to receiving Compound I. All groups will be evaluated based on pharmacokinetic (PK), safety and tolerability prior to escalation to the next highest group or starting the MAD portion of the study.
For Groups 1 to 4, the study drug will be administered with the participant in the upright position. Study drug will be administered to participants between 08:00 and 9:00 hours in the morning. Before the morning dose, participants will be fasted overnight for at least 10 hours following a light supper on the evening before. Within a period, dosing should be at the same time each day 15 minutes. The study drug will be swallowed together with 240 mL tap water. The study drug should not be chewed. Fasting will continue for a period of 4 hours after drug administration. During fasting, no fluids are allowed except water; however, water is not allowed from 2 hours pre-dose until 1 hour post-dose. When not fasting, non-caffeinated fluids are allowed ad libitum. […]

A2aR = molecular target: T1, A2aR (Homo sapiens, UniProt P29274); experiment: pCREB (marker for A2R inhibition) by flow cytometry in blood CD8+ T cells stimulated ex vivo with 5 μM NECA
T1 construct: all subjects responded to 5 μM NECA by increasing the levels of pCREB in their blood CD8+ T cells; endogenous in cells; host or cells: blood CD8+ T cells of trial subjects (ex vivo)
T1 sequence (P29274 whole entry): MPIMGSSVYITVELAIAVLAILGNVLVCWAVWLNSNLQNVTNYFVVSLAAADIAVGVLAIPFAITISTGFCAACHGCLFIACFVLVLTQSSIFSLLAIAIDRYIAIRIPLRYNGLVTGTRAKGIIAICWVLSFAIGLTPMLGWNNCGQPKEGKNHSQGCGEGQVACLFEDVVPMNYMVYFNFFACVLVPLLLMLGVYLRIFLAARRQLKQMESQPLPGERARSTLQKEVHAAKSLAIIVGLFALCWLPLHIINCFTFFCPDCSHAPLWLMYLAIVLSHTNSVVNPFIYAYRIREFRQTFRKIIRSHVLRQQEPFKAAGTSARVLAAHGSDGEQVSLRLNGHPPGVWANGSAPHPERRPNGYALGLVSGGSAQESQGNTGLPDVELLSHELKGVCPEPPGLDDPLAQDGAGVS
Excerpt: The assessment of pCREB (a marker for A2R inhibition) by flow cytometry will be conducted during the study.

[2] = Safety and tolerability in healthy volunteers; type: in vivo, human; settings: doses of up to 150 mg
Excerpt: Safety and tolerability assessments will consist of adverse events (AEs), clinical laboratory, vital signs, 12-lead ECG, telemetry, physical examination, Bond and Lader Visual Analog Scale (VAS) of Mood and Alertness, and Digit Symbol Substitution Test (DSST). Assessments will be performed in accordance with the schedules of assessments.

For Cc1c(C#N)cccc1-c1cc(-c2cn(Cc3cccc(C(C)(C)O)n3)nn2)nc(N)n1 [Compound I, 3-(2-amino-6-(1-((6-(2-hydroxypropan-2-yl)pyridin-2-yl)methyl)-1H-1,2,3-triazol-4-yl)pyrimidin-4-yl)-2-methylbenzonitrile], the half-life ([1]; both sexes, human, plasma, healthy volunteers, following a single oral dose) was about 20 h, the “plasma levels of Compound I with increased doses” value ([1]; healthy volunteers, 10, 25, 75 and 150 mg, FIG. 1) was “dose proportional increases” and the inhibition at 75 mg (A2aR; 75 mg once daily, in the presence of 5 μM NECA, projected from single-dose PK profiles, FIG. 2, read-out: expected inhibition of A2R at steady-state plasma levels) was 90%. For the same compound, the “inhibition of NECA-mediated activation of A2aR” value (A2aR; 150 mg, 24 hours after dosing, 5 μM NECA) was “approximately 90%”, the “pCREB response relative to the response seen pre-dose” value (A2aR; 150 mg, 24 hours after dosing, blood CD8+ T cells, 5 μM NECA, FIG. 3) was “approximately 10%” and the “pCREB activation signal in response to NECA” value (A2aR; 150 mg, two hours after dosing, blood CD8+ T cells, 5 μM NECA, FIG. 3) was “no detectable increase in pCREB levels”. For the same compound, the safety issues [2] was “no safety issues have been identified”.

— patent US11478479B2, “Dosing with an azolopyrimidine compound” (ARCUS BIOSCIENCES, INC., priority 2018, dated 2022)
